Reference: PubChem BioAssay (NCI)
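Method: 48-hour compound exposure of cells in 96-well plates, five concentrations, linear interpolation of endpoints. TGI marks complete inhibition of growth.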

What was measured:
Experiment in all cases: DTP human tumour cell line panel, 48 h
OVCAR-3 ovarian = system: OVCAR-3 ovarian
HOP-92 NSCLC = system: HOP-92 NSCLC
XF 498 CNS = system: XF 498 CNS
SN12C renal = system: SN12C renal
MALME-3M melanoma = system: MALME-3M melanoma
SNB-75 CNS = system: SNB-75 CNS
HCC-2998 colon = system: HCC-2998 colon
SR leukemia = system: SR leukemia
NCI-H23 lung = system: NCI-H23 lung
SF-295 CNS = system: SF-295 CNS
TK-10 renal = system: TK-10 renal
A549 NSCLC = system: A549 NSCLC
DMS 273 small cell lung = system: DMS 273 small cell lung
SK-OV-3 ovarian = system: SK-OV-3 ovarian
U251 CNS = system: U251 CNS
OVCAR-4 ovarian = system: OVCAR-4 ovarian
HOP-62 NSCLC = system: HOP-62 NSCLC
CCRF-CEM leukemia = system: CCRF-CEM leukemia
IGROV1 ovarian = system: IGROV1 ovarian
M14 melanoma = system: M14 melanoma
HT29 colon = system: HT29 colon
SNB-19 CNS = system: SNB-19 CNS
K-562 leukemia = system: K-562 leukemia
RXF-631 renal = system: RXF-631 renal
HL-60(TB) leukemia = system: HL-60(TB) leukemia
NCI-H460 lung = system: NCI-H460 lung
DMS 114 small cell lung = system: DMS 114 small cell lung
MOLT-4 leukemia = system: MOLT-4 leukemia
RPMI-8226 leukemia = system: RPMI-8226 leukemia
SF-539 CNS = system: SF-539 CNS
OVCAR-8 ovarian = system: OVCAR-8 ovarian
ACHN renal = system: ACHN renal
SF-268 CNS = system: SF-268 CNS
NCI-H522 lung = system: NCI-H522 lung
COLO 205 colon = system: COLO 205 colon
UACC-257 melanoma = system: UACC-257 melanoma
SK-MEL-2 melanoma = system: SK-MEL-2 melanoma
OVCAR-5 ovarian = system: OVCAR-5 ovarian
SK-MEL-5 melanoma = system: SK-MEL-5 melanoma
KM12 colon = system: KM12 colon
LXFL 529 NSCLC = system: LXFL 529 NSCLC
RXF 393 renal = system: RXF 393 renal
UACC-62 melanoma = system: UACC-62 melanoma
HCT-116 colon = system: HCT-116 colon
A498 renal = system: A498 renal
DLD-1 colon = system: DLD-1 colon
EKVX NSCLC = system: EKVX NSCLC
SK-MEL-28 melanoma = system: SK-MEL-28 melanoma
SNB-78 CNS = system: SNB-78 CNS
UO-31 renal = system: UO-31 renal
786-0 renal = system: 786-0 renal
LOX IMVI melanoma = system: LOX IMVI melanoma
M19-MEL melanoma = system: M19-MEL melanoma
SW-620 colon = system: SW-620 colon
HCT-15 colon = system: HCT-15 colon
HOP-18 NSCLC = system: HOP-18 NSCLC
NCI-H226 lung = system: NCI-H226 lung
KM20L2 colon = system: KM20L2 colon
CAKI-1 renal = system: CAKI-1 renal

Measured: TGI

COc1ccc2oc(C(=O)O)c3c2c1CCC3CCC(=O)O (centres undefined)
> 1 µM: OVCAR-3 ovarian | HOP-62 NSCLC | M14 melanoma
not listed: HCT-15 colon | HOP-18 NSCLC | NCI-H226 lung | KM20L2 colon | CAKI-1 renal
> 100 µM: all other assays above

CCCCNC(=O)C1C2CCC(O2)C1C(=O)O (centres undefined)
42 µM: RPMI-8226 leukemia
45.1 µM: SF-268 CNS
30.9 µM: SN12C renal
29 µM: U251 CNS
57.7 µM: ACHN renal
76.1 µM: SK-MEL-28 melanoma
90.9 µM: HOP-18 NSCLC
58.7 µM: SNB-19 CNS
41.8 µM: NCI-H522 lung
32.4 µM: A498 renal
19.2 µM: XF 498 CNS
28.2 µM: DMS 114 small cell lung
55.4 µM: HT29 colon
52.1 µM: SNB-75 CNS
25.2 µM: HCT-116 colon
43.3 µM: OVCAR-8 ovarian
54.8 µM: SK-MEL-2 melanoma
74.7 µM: SF-295 CNS
34.7 µM: LOX IMVI melanoma
45.7 µM: UACC-257 melanoma
49.4 µM: DLD-1 colon
43.4 µM: UACC-62 melanoma
40.4 µM: MOLT-4 leukemia
34.6 µM: LXFL 529 NSCLC
42.5 µM: TK-10 renal
8.44 µM: RXF 393 renal
41.4 µM: M19-MEL melanoma
65.6 µM: EKVX NSCLC
46.6 µM: HCC-2998 colon
10.6 µM: SW-620 colon
35.3 µM: NCI-H226 lung
70.3 µM: HCT-15 colon
45.8 µM: SK-MEL-5 melanoma
43.7 µM: MALME-3M melanoma
29.5 µM: M14 melanoma
32.5 µM: COLO 205 colon
27.4 µM: KM20L2 colon
39.6 µM: SF-539 CNS
31.5 µM: OVCAR-3 ovarian | 786-0 renal
39 µM: HOP-92 NSCLC
53.7 µM: SK-OV-3 ovarian
95.4 µM: SR leukemia
not listed: CCRF-CEM leukemia | K-562 leukemia | HL-60(TB) leukemia | CAKI-1 renal
> 100 µM: all other assays above

O=C(O/N=C1/CCC/C1=C\c1ccccc1)c1ccc(Cl)c(Cl)c1
not listed: XF 498 CNS | SNB-19 CNS
> 100 µM: all other assays above

O=C(CCn1[nH]c(=O)c(Cl)c(Cl)c1=O)NNC(=O)C[n+]1ccccc1
not listed: HOP-92 NSCLC | SR leukemia | U251 CNS | UACC-257 melanoma | HCT-116 colon | SNB-78 CNS
> 100 µM: all other assays above

COc1ccc2c3c(c(C(=O)c4ccccc4)oc13)CCC2
41.4 µM: NCI-H23 lung
31.3 µM: RXF 393 renal
not listed: HOP-92 NSCLC | MALME-3M melanoma | SR leukemia | SF-268 CNS | NCI-H522 lung | SK-MEL-2 melanoma | OVCAR-5 ovarian | KM12 colon | UO-31 renal | NCI-H226 lung
> 100 µM: all other assays above

CCOC(=O)c1cnc2sc3ccc4ccccc4c3n2c1=O
52 µM: HL-60(TB) leukemia
94.6 µM: UO-31 renal
82.6 µM: CCRF-CEM leukemia
99.4 µM: CAKI-1 renal
not listed: XF 498 CNS | NCI-H522 lung | A498 renal
> 100 µM: all other assays above
